Experiments:
primary human monocytes = assay: TNF-α and IL-6 ELISA in LPS-stimulated primary human monocytes; type: cell-based; conditions: LPS 100 ng/ml, AE1-329 100 nM, 6 hours
Experimental: Human monocyte derived macrophages were purchased from AllCells (Catalog #PB-MDM-001F: Frozen normal peripheral blood monocyte derived macrophages) and plated at a density of 23,000 cells per well in a 96 well plate. Two dilutions (1:5 and 1:10) were tested using anti-human IL6 and anti-human TNFα ELISA to measure concentrations of these two cytokines in pg/ml after 6 hours of stimulation with either vehicle alone, AE1-329 (100 nM), LPS, and LPS plus AE1-329 (100 nM).
Primary human monocytes were stimulated with either vehicle (PBS) alone, AE1-329 (100 nM), LPS (100 ng/ml), and LPS (100 ng/ml) plus AE1-329 (100 nM). Two dilutions (1:5 and 1:10) were tested using anti-human IL6 and anti-human TNF-α ELISA to measure concentrations of these two cytokines in pg/ml after 6 hours of stimulation.

[1] = system: IKK phosphorylation in BV-2 cells; assay: phospho-IKK quantitative Western in LPS-stimulated BV-2 cells; type: cell-based, murine; conditions: LPS 100 ng/ml, AE1-329 100 nM
Experimental: Nuclear and cytoplasmic fractions of BV-2 cells were prepared at several time points after treatment (0-120 minutes) using the nuclear extract kit from Active Motif (Carlsbad, Calif.). Briefly, cells were washed, collected in ice-cold PBS in the presence of phosphatase inhibitors, and centrifuged at 300×g for 5 min at 4° C. Cell pellets were resuspended in hypotonic buffer, treated with detergent, and centrifuged at 14,000×g for 30 sec at 4° C. After collection of the cytoplasmic fraction, nuclei were solubilized for 30 min in lysis buffer containing protease inhibitors. Lysates were centrifuged at 14,000×g for 30 min at 4° C. and supernatants were collected for NF-κB studies. To prepare whole cell lysates for phospho-Akt and phospho-IKK studies, cells were washed in ice-cold PBS and lysed in 20 mM Tris-HCl, pH 7.5, 150 mM NaCl, 1 mM Na2EDTA, 1 mM EGTA, 1% Triton, 2.5 mM sodium pyrophosphate, 1 mM β-glycerophosphate, 1 mM orthovanadate, 1 μg/ml leupeptin and 1 mM PMSF. […] All protein concentrations were determined using the Bradford protein assay.
Western blot analysis. […] Immunoreactivity was detected using either sheep anti-rabbit or sheep anti-mouse HRP-conjugated secondary antibody (Amersham Biosciences, Arlington Heights, Ill.), followed by enhanced chemiluminescence (Pierce). Autoradiographic signals were quantified using NIH Image. […]

EP4 receptor = conditions: Suzawa et al., 2000; Shibuya et al., 2002; cited from earlier work

## COCc1ccccc1CC[C@H](O)/C=C/[C@H]1[C@H](O)CC(=O)[C@@H]1SCCCSCC(=O)O [AE1-329]
Primary human monocytes
  LPS-induced increase in IL-6 levels (ELISA): significantly reduced
  LPS-induced increase in TNF-α levels (ELISA): entirely reversed
[1]
  LPS-induced phosphorylation of IKK: attenuated
EP4 receptor
  selectivity for the EP4 receptor: selectivity for the EP4 receptor has been previously established
